# Reference: patent publication US9334530B2, “Methods for making and imaging arrays that comprise a plurality of different biomolecules” (AmberGen, Inc., priority 2007, dated 2016)
# Biological target: T1, PKCα (Homo sapiens, UniProt P17252)
# T1 construct: isolate and photo-release endogenous PKCa from the undiluted detergent fractionated HeLa cell extracts; endogenous in cells; host or cells: HeLa cells (ATCC)
# Test: PMA mediated PKCα sub-cellular translocation, measured by kinase activity after photocleavable antibody isolation
# Type: cell-based
# Details: cultured HeLa cells stimulated with 200 nM PMA for 5 min, detergent fractionated; based on kinase activity of isolated PKCα; n=4
# Method: FIG. 20. Phorbol ester (PMA) mediated protein kinase Cα (PKCα) sub-cellular translocation as measured by functional activity following isolation with photocleavable antibodies. Cultured HeLa cells were stimulated with 200 nM PMA for 5 min and detergent fractionated into the cytosol and membrane compartments prior to isolation and purification with the photocleavable antibodies.
# Cultured HeLa cells (ATCC; Manassas, Va.) were stimulated for 5 min with 200 nM Phorbol-12-Myristate-13-Acetate (PMA; EMD Biosciences, Inc., San Diego, Calif.) and subsequently detergent fractionated into sub-cellular compartments according to reported procedures [Ramsby et al. (1994) Electrophoresis 15, 265-277; Ramsby & Makowski. (1999) Methods Mol Biol 112, 53-66; Chiang et al. (2000) J Biochem Biophys Methods 46, 53-68]. PMA is a potent activator of PKCα and is well known to cause translocation of the kinase from the cytosolic to the membrane sub-cellular compartments [Ross & Joyner. (1997) Endothelium 5, 321-332; Bazan & Rapoport. (1996) JPharmacol Toxicol Methods 36, 87-95; Yazlovitskaya & Melnykovych. (1995) Cancer Lett 88, 179-183]. […]
structure (smiles),measurement,value
"CCCCCCCCCCCCCC(=O)O[C@@H]1[C@@H](C)[C@@]2(O)[C@@H](C=C(CO)C[C@]3(O)C(=O)C(C)=C[C@@H]23)[C@@H]2C(C)(C)[C@]12OC(C)=O [PMA, Phorbol-12-Myristate-13-Acetate]",relative sub-cellular distribution of PKCα: cytosol,16±4%
same,relative sub-cellular distribution of PKCα: membrane,84±3%
